Converted amounts (≈) assume the structure as drawn. Like-named read-outs stand apart in the source and are kept apart here.
Key:
Penicillium italicum = experiment: antifungal MIC, broth tube dilution; assay type: cell-based
Source text: (§1) In this paper, the synthesis, characterization, and biological evaluation of the novel tetrahydropyrimidines—THPMs are described. THPMs are well-known for wide pharmacological activities such as antimicrobial, anticancer, antiviral, etc. This research includes obtained results of in vitro antimicrobial, anticancer, and α-glucosidase inhibitory activities of the eleven novel THPMs. An antibiotic assessment was done against five bacteria (two Gram-positive and three Gram-negative) and five fungi by determining the minimal inhibitory concentration (MIC), using the broth tube dilution method. […] The cytotoxic activity was performed on the tumor cell lines (HeLa, K562, and MDA-MB-231) and normal cells (MRC-5). The best antitumor activity was shown by compounds 4b and 4k against HeLa cell lines.
(§2) All materials and methods used for biological examination (antibacterial, antifungal, anticancer, and α-glucosidase inhibitory activities) and crystal structure determination are presented in the Supplementary Materials, File S1.

Aspergillus flavus = experiment: antifungal MIC, broth tube dilution; assay type: cell-based
Source text: as §1, §2

Aspergillus niger = experiment: antifungal MIC, broth tube dilution; assay type: cell-based
Source text: as §1, §2

Mucor mucedo = experiment: antifungal MIC, broth tube dilution; assay type: cell-based
Source text: as §1, §2

[1] = tested on: Trichophyton mentagrophytes; experiment: antifungal MIC, broth tube dilution; assay type: cell-based
Source text: as §1, §2

Escherichia coli = experiment: antibacterial MIC, broth tube dilution; assay type: cell-based
Source text: as §1, §2

Staphylococcus aureus = experiment: antibacterial MIC, broth tube dilution; assay type: cell-based
Source text: as §1, §2

Klebsiella oxytoca = experiment: antibacterial MIC, broth tube dilution; assay type: cell-based
Source text: as §1, §2

Proteus mirabilis = experiment: antibacterial MIC, broth tube dilution; assay type: cell-based; details: ND = not detected
Source text: as §1, §2

Bacillus subtilis = experiment: antibacterial MIC, broth tube dilution; assay type: cell-based
Source text: as §1, §2

α-glucosidase = α-glucosidase inhibitory activity; assay type: biochemical; details: average ± SD of two experiments
Source text: as §2

[2] = tested on: normal human lung fibroblasts MRC-5; experiment: cytotoxic activity on normal cells; assay type: cell-based; details: MRC5, MRC-5 normal fibroblasts, three independent experiments in triplicate, read-out: IC50 Average ± SD
Source text: as §2
The cytotoxic activity of eleven novel compounds was examined against HeLa, K562, MDA-MB-231, and MRC-5.
The cytotoxic activity was examined against HeLa, K562, MDA-MB-231 cells, and normal human lung fibroblasts MRC-5. […] In addition, the effects of the 4k and 4b on the cell cycle were examined.

MDA-MB-231 cells = experiment: cytotoxic activity; assay type: cell-based; details: Homo sapiens, three independent experiments in triplicate, read-out: IC50 Average ± SD
Source text: (§3) All materials and methods used for biological examination (antibacterial, antifungal, anticancer, and α-glucosidase inhibitory activities) and crystal structure determination are presented in the Supplementary Materials, File S1. The cytotoxic activity of eleven novel compounds was examined against HeLa, K562, MDA-MB-231, and MRC-5. The tested compounds exerted concentration-dependent cytotoxic effects on cell lines. […] Compared to compound 4j, 4k has a methyl group in para position of benzoyl fragment; so, probably this structural difference is responsible for better activity and selectivity of compound 4k on HeLa (43.63 ± 1.49 µM) and K562 (39.11 ± 2.90 µM).

HeLa cells [3] = experiment: cytotoxic activity; assay type: cell-based; details: for IC50: Homo sapiens, read-out: IC50 Average ± SD; for IC50 / IC50 Average ± SD: HeLa, three independent experiments in triplicate
Source text: as §3

K562 cells = experiment: cytotoxic activity; assay type: cell-based; details: Homo sapiens; K562; three independent experiments in triplicate; read-out: IC50 Average ± SD
Source text: as §3

HeLa cells [4] = experiment: morphological evaluation of cell death mode, acridine orange/ethidium bromide staining; assay type: cell-based; details: 24 h, 2IC50 concentration
Protocol: as §2
The photomicrographs of control HeLa cells and HeLa cells incubated for 24 h with 2IC50 concentrations of the compounds 4b and 4k and stained with a mixture of acridine orange/ethidium bromide are presented in Figure 5. […] Orange-red-stained shrunken cells with condensed chromatin in later stages of apoptosis were detected as well. […] The proapoptotic effect of compound 4b was to some extent stronger when comparing with effect of compound 4k.
Figure 5 Photomicrographs of acridine orange/ethidium bromide-stained control HeLa cells and HeLa cells incubated with 2IC50 concentrations of compounds 4b and 4k during 24 h (magnification 20×). Representative photomicrographs are shown.

HeLa cells [5] = experiment: cell-cycle phase distribution; assay type: cell-based; details: 24 h, IC50 and 2IC50 concentrations, vs untreated control
Source text: as §2
The observed changes in the amounts of treated cells within subG1 and G1 phases of the cell cycle were accompanied with decreased percentages of cells within the S and G2/M phases.
The data shown represent the average ± standard deviation of two independent experiments.

Work on COC(=O)C1=C(C)N(C)C(=S)NC1c1cc(Br)c(O)c(OC)c1 (stereo not drawn) [4a] yielded an MIC (Penicillium italicum) of 1620 µg/mL (≈ 4.04 mM), an MIC (Aspergillus flavus) of 1620 µg/mL (≈ 4.04 mM) and an MIC (Aspergillus niger) of 1620 µg/mL (≈ 4.04 mM). The MIC (Mucor mucedo) was 1620 µg/mL (≈ 4.04 mM), the MIC [1] was 400 µg/mL (≈ 0.997 mM) and the MIC (Escherichia coli) was 1620 µg/mL (≈ 4.04 mM). For the same compound, the MIC (Staphylococcus aureus) was 1620 µg/mL (≈ 4.04 mM), the MIC (Klebsiella oxytoca) was 1620 µg/mL (≈ 4.04 mM) and the MIC (Proteus mirabilis; read-out: MIC) was 810 µg/mL (≈ 2.02 mM). For the same compound, the MIC (Bacillus subtilis) was 3250 µg/mL (≈ 8.1 mM), the IC50 (α-glucosidase) was 313 ± 7.73 µM and the IC50 [2] was 187 ± 4.66 µM. The IC50 (MDA-MB-231 cells) was 144 ± 8.29 µM, the IC50 (HeLa cells [3]) was 97.4 ± 5.4 µM and the IC50 (K562 cells) was 79 ± 7.49 µM.

For COC(=O)C1=C(C)N(C)C(=S)NC1c1cc(I)c(O)c(OC)c1 (stereo not drawn) [4b], the MIC (Penicillium italicum) was 1620 µg/mL (≈ 3.61 mM), the MIC (Aspergillus flavus) was 1620 µg/mL (≈ 3.61 mM) and the MIC (Aspergillus niger) was 810 µg/mL (≈ 1.81 mM). It also gave an MIC (Mucor mucedo) of 1620 µg/mL (≈ 3.61 mM), an MIC [1] of 400 µg/mL (≈ 0.892 mM) and an MIC (Escherichia coli) of 1620 µg/mL (≈ 3.61 mM). For the same compound, the MIC (Staphylococcus aureus) was 1620 µg/mL (≈ 3.61 mM), the MIC (Klebsiella oxytoca) was 1620 µg/mL (≈ 3.61 mM) and the MIC (Proteus mirabilis; read-out: MIC) was 810 µg/mL (≈ 1.81 mM). The MIC (Bacillus subtilis) was 3250 µg/mL (≈ 7.25 mM), the IC50 (α-glucosidase) was 292 ± 6.67 µM and the “cell death mode (apoptosis)” value (HeLa cells [4]) was “induce apoptotic cell death”. For the same compound, the “percentage of HeLa cells in the G1 phase” value (HeLa cells [5]) was “pronounced increase”, the “percentage of dead cells within subG1 phase” value (HeLa cells [5]) was “increase” and the “percentages of cells within the S and G2/M phases” value (HeLa cells [5]) was “decreased”. The IC50 [2] was 112 ± 10.8 µM, the IC50 (MDA-MB-231 cells) was 116 ± 8.71 µM and the selectivity coefficient (HeLa cells [3]; HeLa compared with MRC-5 cells) was 2.13. It also gave an IC50 (HeLa cells [3]) of 52.6 ± 4.45 µM and an IC50 (K562 cells) of 76.8 ± 5.01 µM.

For COC(=O)C1=C(C)N(C)C(=S)NC1c1cc(OC)c(O)c([N+](=O)[O-])c1 (stereo not drawn) [4c], the MIC (Penicillium italicum) was 1620 µg/mL (≈ 4.41 mM), the MIC (Aspergillus flavus) was 400 µg/mL (≈ 1.09 mM) and the MIC (Aspergillus niger) was 810 µg/mL (≈ 2.2 mM). For the same compound, the MIC (Mucor mucedo) was 1620 µg/mL (≈ 4.41 mM), the MIC [1] was 400 µg/mL (≈ 1.09 mM) and the MIC (Escherichia coli) was 1620 µg/mL (≈ 4.41 mM). For the same compound, the MIC (Staphylococcus aureus) was 1620 µg/mL (≈ 4.41 mM), the MIC (Klebsiella oxytoca) was 1620 µg/mL (≈ 4.41 mM) and the MIC (Proteus mirabilis; read-out: MIC) was 1620 µg/mL (≈ 4.41 mM). The MIC (Bacillus subtilis) was 3250 µg/mL (≈ 8.85 mM), the IC50 [2] was 196 ± 5.89 µM and the IC50 (MDA-MB-231 cells) was > 200 µM. The “IC50 Average ± SD” value (HeLa cells [3]) was “very low cytotoxicity”, the IC50 (HeLa cells [3]) was > 200 µM and the IC50 (K562 cells) was 180 ± 9.15 µM.

In the case of COC(=O)C1=C(C)N(C)C(=S)NC1c1cc(OC)c(OC(C)=O)c([N+](=O)[O-])c1 (stereo not drawn) [4d], the MIC (Penicillium italicum) is reported as 1620 µg/mL (≈ 3.96 mM), the MIC (Aspergillus flavus) is reported as 1620 µg/mL (≈ 3.96 mM) and the MIC (Aspergillus niger) is reported as 1620 µg/mL (≈ 3.96 mM). For the same compound, the MIC (Mucor mucedo) was 1620 µg/mL (≈ 3.96 mM), the MIC [1] was 400 µg/mL (≈ 0.977 mM) and the MIC (Escherichia coli) was 1620 µg/mL (≈ 3.96 mM). The MIC (Staphylococcus aureus) was 810 µg/mL (≈ 1.98 mM), the MIC (Klebsiella oxytoca) was 1620 µg/mL (≈ 3.96 mM) and the MIC (Proteus mirabilis; read-out: MIC) was 810 µg/mL (≈ 1.98 mM). The MIC (Bacillus subtilis) was 3250 µg/mL (≈ 7.94 mM), the IC50 (α-glucosidase) was 1120 ± 20.6 µM and the IC50 [2] was 193 ± 10.3 µM. The IC50 (MDA-MB-231 cells) was > 200 µM, the “IC50 Average ± SD” value (HeLa cells [3]) was “very low cytotoxicity” and the IC50 (HeLa cells [3]) was > 200 µM. The IC50 (K562 cells) was 165 ± 8.5 µM.

CCC(=O)Oc1ccc(C2NC(=S)N(C)C(C)=C2C(=O)OC)cc1OC (stereo not drawn) [4e] showed an MIC (Penicillium italicum) of 1620 µg/mL (≈ 4.28 mM), an MIC (Aspergillus flavus) of 1620 µg/mL (≈ 4.28 mM) and an MIC (Aspergillus niger) of 1620 µg/mL (≈ 4.28 mM). For the same compound, the MIC (Mucor mucedo) was 1620 µg/mL (≈ 4.28 mM), the MIC [1] was 200 µg/mL (≈ 0.528 mM) and the MIC (Escherichia coli) was 1620 µg/mL (≈ 4.28 mM). For the same compound, the MIC (Staphylococcus aureus) was 3250 µg/mL (≈ 8.59 mM), the MIC (Klebsiella oxytoca) was 3250 µg/mL (≈ 8.59 mM) and the MIC (Proteus mirabilis) was “no inhibitory effect”. The MIC (Bacillus subtilis) was 3250 µg/mL (≈ 8.59 mM), the IC50 (α-glucosidase) was 674.8 ± 5.65 µM and the IC50 [2] was 128 ± 3.2 µM. For the same compound, the IC50 (MDA-MB-231 cells) was > 200 µM, the IC50 (HeLa cells [3]) was 197 ± 3.93 µM and the IC50 (K562 cells) was 149 ± 5.74 µM.

In the case of COC(=O)C1=C(C)N(C)C(=S)NC1c1ccc(OC(=O)C2CC2)c(OC)c1 (stereo not drawn) [4f], the MIC (Penicillium italicum) is reported as 1620 µg/mL (≈ 4.15 mM), the MIC (Aspergillus flavus) is reported as 1620 µg/mL (≈ 4.15 mM) and the MIC (Aspergillus niger) is reported as 810 µg/mL (≈ 2.07 mM). It also gave an MIC (Mucor mucedo) of 1620 µg/mL (≈ 4.15 mM), an MIC [1] of 200 µg/mL (≈ 0.512 mM) and an MIC (Escherichia coli) of 3250 µg/mL (≈ 8.32 mM). For the same compound, the MIC (Staphylococcus aureus) was 3250 µg/mL (≈ 8.32 mM), the MIC (Klebsiella oxytoca) was 3250 µg/mL (≈ 8.32 mM) and the MIC (Proteus mirabilis; read-out: MIC) was 1620 µg/mL (≈ 4.15 mM). The MIC (Bacillus subtilis) was 3250 µg/mL (≈ 8.32 mM), the IC50 (α-glucosidase) was 767.9 ± 5.91 µM and the IC50 [2] was 196 ± 5.54 µM. For the same compound, the IC50 (MDA-MB-231 cells) was 161 ± 9.69 µM, the IC50 (HeLa cells [3]) was 135 ± 9.32 µM and the IC50 (K562 cells) was 123 ± 8.52 µM.

— article PMC9610702, “Synthesis, Characterization, and Biological Evaluation of Tetrahydropyrimidines: Dual-Activity and Mechanism of Action” (Pharmaceutics, 2022)
